From patent publication US20240270821A1, “GIP/GLP1/GCG TRI-RECEPTOR AGONISTS AND USES THEREOF” (priority 2023, published 2024)
Like-named read-outs stand apart in the source and are kept apart here. Starred links: 1 amine or outer side, 2 acyl side, 3 side chain; linkers in the order of their positions; H or OH if unused. Non-standard residues stand in square brackets, D forms with d. Groups on a side chain read outwards from the residue. No end group written: not given here. *: point of attachment. C18 diacid = O=C(O)CCCCCCCCCCCCCCCCC(=O)*; αMePhe(2-F) = C[C@](N)(Cc1ccccc1F)C(=O)O; γGlu = O=C(O)[C@H](CCC(=O)[*:2])N[*:1]; αMe4Pal = C[C@](N)(Cc1ccncc1)C(=O)O; αMeY = C[C@](N)(Cc1ccc(O)cc1)C(=O)O; 4Pal = N[C@@H](Cc1ccncc1)C(=O)O; αMeL = CC(C)C[C@](C)(N)C(=O)O; αMeS = C[C@](N)(CO)C(=O)O; Orn = NCCC[C@H](N)C(=O)O; Aib = CC(C)(N)C(=O)O

Legend:
Assay type in all cases: cell-based
hGIPR [1] = target: T1, hGIPR (Homo sapiens, UniProt P48546); test: Functional cAMP activation in the presence of 0.1% casein (no HSA); details: read-out: Relative cAMP EC50, hGIPR;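 also: intracellular cAMP rise after 30 min at 37 °C read by HTRF against a standard curve, scaled between buffer alone (0%) and top control ligand concentration (100%), four-parameter fit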
T1 sequence (P48546 22-466): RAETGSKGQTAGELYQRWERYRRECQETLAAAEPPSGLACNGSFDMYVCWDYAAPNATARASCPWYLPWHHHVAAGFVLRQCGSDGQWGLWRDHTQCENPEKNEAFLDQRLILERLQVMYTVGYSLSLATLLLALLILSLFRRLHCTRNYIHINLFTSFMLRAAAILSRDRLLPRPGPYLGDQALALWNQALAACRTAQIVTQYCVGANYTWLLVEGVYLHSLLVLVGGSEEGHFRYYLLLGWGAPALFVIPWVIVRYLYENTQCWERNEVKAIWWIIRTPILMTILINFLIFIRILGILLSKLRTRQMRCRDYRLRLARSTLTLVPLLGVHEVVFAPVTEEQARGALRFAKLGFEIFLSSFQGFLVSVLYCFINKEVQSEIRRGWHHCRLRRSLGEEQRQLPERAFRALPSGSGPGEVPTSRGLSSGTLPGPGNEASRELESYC

human GcgR = human GcgR (Homo sapiens, UniProt P47871); test: Functional cAMP activity in the presence of 1% HSA; details: read-out: cAMP Rel EC50, hGcgR
human GcgR, sequence (P47871 26-477): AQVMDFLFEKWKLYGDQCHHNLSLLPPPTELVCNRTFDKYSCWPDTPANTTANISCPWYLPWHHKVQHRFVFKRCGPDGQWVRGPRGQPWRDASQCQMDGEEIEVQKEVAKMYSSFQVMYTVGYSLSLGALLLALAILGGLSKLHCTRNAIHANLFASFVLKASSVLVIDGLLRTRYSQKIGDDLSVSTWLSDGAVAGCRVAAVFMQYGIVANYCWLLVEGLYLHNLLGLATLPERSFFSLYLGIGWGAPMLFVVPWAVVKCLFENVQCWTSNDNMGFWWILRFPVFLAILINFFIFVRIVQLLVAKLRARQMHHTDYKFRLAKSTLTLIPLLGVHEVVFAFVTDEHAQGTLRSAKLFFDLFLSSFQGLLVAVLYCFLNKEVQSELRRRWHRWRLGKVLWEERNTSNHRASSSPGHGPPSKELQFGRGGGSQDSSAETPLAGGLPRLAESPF

hGcgR = hGcgR (Homo sapiens, UniProt P47871); test: Functional cAMP activation in the presence of 0.1% casein (no HSA); details: read-out: Relative cAMP EC50, hGcgR;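 also: intracellular cAMP rise after 30 min at 37 °C, read by HTRF against a cAMP standard curve, scaled from buffer only (0%) to maximal control ligand response (100%)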
hGcgR, sequence (P47871 26-477): as above

hGIPR [2] = target: T1, hGIPR; test: Functional cAMP activity in the presence of 1% HSA; details: read-out: cAMP Rel EC50, hGIPR
human GLP1-R = human GLP1-R (Homo sapiens, UniProt P43220); test: GLP1-R internalization assay in HEK293 cells; details: for EC50: HEK293 cells expressing SNAP-GLP-1R, read-out: GLP1R Internalization EC50; for Internalization % TOP: normalized to maximum concentration of GLP-1 (100%)
human GLP1-R, sequence (P43220 24-463): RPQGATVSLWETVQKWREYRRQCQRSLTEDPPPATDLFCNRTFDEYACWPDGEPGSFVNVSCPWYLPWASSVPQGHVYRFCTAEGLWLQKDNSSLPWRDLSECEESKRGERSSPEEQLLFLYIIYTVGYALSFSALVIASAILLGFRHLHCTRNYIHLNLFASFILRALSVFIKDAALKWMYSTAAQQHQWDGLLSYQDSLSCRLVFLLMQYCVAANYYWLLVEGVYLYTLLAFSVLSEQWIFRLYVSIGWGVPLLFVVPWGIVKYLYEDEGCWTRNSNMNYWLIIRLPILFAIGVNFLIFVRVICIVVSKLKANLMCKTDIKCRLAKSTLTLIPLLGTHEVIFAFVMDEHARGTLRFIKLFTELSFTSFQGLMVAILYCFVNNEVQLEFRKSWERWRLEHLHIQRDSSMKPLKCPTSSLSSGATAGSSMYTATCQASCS

hGLP-1R [3] = target: T2, hGLP-1R (Homo sapiens, UniProt P43220); test: Functional cAMP activity in the presence of 1% HSA; details: read-out: cAMP Rel EC50, hGLP-1R
T2 sequence (P43220 24-463): as above

hGLP-1R [4] = target: T2, hGLP-1R; test: Functional cAMP activation in the presence of 0.1% casein (no HSA); details: read-out: Relative cAMP EC50, hGLP-1R;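 also: intracellular cAMP rise after 30 min at 37 °C read by HTRF, normalized between buffer only (0%) and maximal control ligand (100%), four-parameter variable-slope fit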
[5] = in the presence of 0.1% casein (no HSA), geometric mean
[6] = 0.1% casein, no HSA, geometric mean

Molecule	EC50 (hGIPR [1]; [5]) [nM]	EC50 (human GcgR) [nM]	EC50 (hGcgR; [5]) [nM]	EC50 (hGIPR [2]) [nM]	EC50 (human GLP1-R) [nM]	Internalization % TOP (human GLP1-R) [%]	EC50 (hGLP-1R [3]) [nM]	EC50 (hGLP-1R [4]; [5]) [nM]	EC50 (hGIPR [1]) [nM]	EC50 (hGcgR) [nM]	EC50 (hGLP-1R [4]) [nM]	EC50 (hGIPR [1]; [6]) [nM]	EC50 (hGcgR; [6]) [nM]	EC50 (hGLP-1R [4]; [6]) [nM]
CC[C@H](C)[C@H](NC(=O)[C@H](Cc1ccccc1)NC(=O)[C@H](C)NC(=O)C(C)(C)NC(=O)[C@H](CCC(N)=O)NC(=O)[C@H](C)NC(=O)[C@H](CCCCNC(=O)COCCOCCNC(=O)CC[C@H](NC(=O)CCCCCCCCCCCCCCCCC(=O)O)C(=O)O)NC(=O)[C@H](CCCCN)NC(=O)[C@H](CC(=O)O)NC(=O)[C@H](CC(C)C)NC(=O)[C@](C)(CC(C)C)NC(=O)[C@H](CCCCN)NC(=O)[C@H](CO)NC(=O)[C@H](Cc1ccccc1)NC(=O)[C@H](CC(=O)O)NC(=O)[C@H](CO)NC(=O)[C@@H](NC(=O)[C@H](Cc1ccccc1)NC(=O)[C@@H](NC(=O)CNC(=O)[C@H](CCC(N)=O)NC(=O)C(C)(C)NC(=O)[C@@H](N)Cc1ccc(O)cc1)[C@@H](C)O)[C@@H](C)O)C(=O)N[C@@H](CCC(=O)O)C(=O)N[C@@H](Cc1ccc(O)cc1)C(=O)N[C@@H](CC(C)C)C(=O)N[C@@H](CC(C)C)C(=O)N[C@@H](C)C(=O)NCC(=O)NCC(=O)N1CCC[C@H]1C(=O)N[C@@H](CO)C(=O)N[C@@H](CO)C(=O)NCC(=O)N[C@@H](CCC(=O)O)C(=O)N1CCC[C@H]1C(=O)N1CCC[C@H]1C(=O)N1CCC[C@H]1C(=O)N[C@@H](CO)C(=O)N[C@@H](CCC(=O)O)C(=O)NCC(N)=O [Example 22]	0.246	532	5.42	81	41.9	64.7	592	2.94	–	–	–	–	–	–
CC[C@H](C)[C@H](NC(=O)[C@H](Cc1ccccc1)NC(=O)[C@H](C)NC(=O)C(C)(C)NC(=O)[C@H](CCC(N)=O)NC(=O)[C@H](C)NC(=O)[C@H](CCCCNC(=O)COCCOCCNC(=O)CC[C@H](NC(=O)CCCCCCCCCCCCCCCCC(=O)O)C(=O)O)NC(=O)[C@H](CCCCN)NC(=O)[C@H](CC(=O)O)NC(=O)[C@H](CC(C)C)NC(=O)[C@](C)(CC(C)C)NC(=O)[C@H](CCCN)NC(=O)[C@H](CO)NC(=O)[C@H](Cc1ccncc1)NC(=O)[C@H](CC(=O)O)NC(=O)[C@H](CO)NC(=O)[C@@H](NC(=O)[C@H](Cc1ccccc1)NC(=O)[C@@H](NC(=O)CNC(=O)[C@H](CCC(N)=O)NC(=O)C(C)(C)NC(=O)[C@@H](N)Cc1ccc(O)cc1)[C@@H](C)O)[C@@H](C)O)C(=O)N[C@@H](CCC(=O)O)C(=O)N[C@@H](Cc1ccc(O)cc1)C(=O)N[C@@H](CC(C)C)C(=O)N[C@@H](CC(C)C)C(=O)N[C@@H](C)C(=O)NCC(=O)NCC(=O)N1CCC[C@H]1C(=O)N[C@@H](CO)C(=O)N[C@@H](CO)C(=O)NCC(=O)N[C@@H](C)C(=O)N1CCC[C@H]1C(=O)N1CCC[C@H]1C(=O)N1CCC[C@H]1C(=O)N[C@@H](CO)C(=O)NCC(=O)N[C@@H](CCC(=O)O)C(N)=O [Example 112]	0.233	1810	11	–	30.1	59.1	892	5.77	–	–	–	–	–	–
Y[Aib]QGT[αMePhe(2-F)]TSD[4Pal][αMeS]I[αMeL]LD[Orn]K([γGlu-γGlu-C18 diacid])AQ[Aib][Orn]FI[dE][αMeY]LQEGGPSSGEPPPSGTE-NH2 [Example 504]	–	162	–	1.8	–	–	16.5	–	0.0364	2.83	0.253	–	–	–
Y[Aib]QGT[αMePhe(2-F)]TSD[4Pal][αMeS]I[αMeL]LD[Orn]K([γGlu-γGlu-C18 diacid])AQ[Aib][Orn]FI[dE][αMeY]LSEGGPSSGEPPPSGSEE-NH2 [Example 569]	–	697	–	12.4	–	–	84.4	–	0.199	4.34	1.12	–	–	–
Y[Aib]QGT[αMePhe(2-F)]TSD[4Pal][αMeS]I[αMeL]LD[Orn]K([γGlu-γGlu-C18 diacid])AQ[Aib][Orn]FI[dE][αMeY]LTEGGPSSGEPPPEGTEE-NH2 [Example 597]	–	329	–	2.38	–	–	36.4	–	0.0643	5.2	0.6	–	–	–
Y[Aib]QGT[αMePhe(2-F)]TSD[4Pal][αMeS]I[αMeL]LD[Orn]K([γGlu-γGlu-C18 diacid])AQ[αMe4Pal]EFI[dE][αMeY]LIEGGPSSGAPPPEGGGEEE-NH2 [Example 1221]	–	185	–	0.814	–	–	57.8	–	–	–	–	0.0111	2.27	0.839
Y[Aib]QGT[αMePhe(2-F)]TSD[4Pal][αMeS]I[αMeL]LD[Orn]K([γGlu-γGlu-C18 diacid])AQ[αMe4Pal]EFI[dE][αMeY]LIEGGPSSGAPPPSGE-NH2 [Example 1150]	0.0069	161	1.17	0.583	–	–	30	0.278	–	–	–	–	–	–
Y[Aib]QGT[αMePhe(2-F)]TSD[4Pal][αMeS]I[αMeL]LD[Orn]K([γGlu-γGlu-C18 diacid])AQ[αMe4Pal]EFI[dE][αMeY]LIEGGPSSGEPPPEGGGE-NH2 [Example 762]	–	119	–	0.692	–	–	27.6	–	0.00882	3.09	0.273	–	–	–
